According to patent US11766470B2, “Manufacture, formulation and dosing of apraglutide” (VectivBio AG, priority 2020, dated 2023):
“And” between values parts separate entries of the source, which are not always exact repeats. Identical values can stand only once. Square brackets hold non-standard residues; d marks the D form. Peptide text beside a SMILES is read from it. ξ: configuration not given here. Ile(3ξ) = CCC(C)[C@H](N)C(=O)O; Thr(3ξ) = CC(O)[C@H](N)C(=O)O; Nle = CCCC[C@H](N)C(=O)O

Test system: healthy adult volunteers
Assay: Multiple dose study in healthy volunteers (Examples 4 and 7), pharmacodynamics: plasma citrulline, Bristol stool scale, body weight
Format: in vivo, human
Experimental: The endogenous marker citrulline was selected to assess the pharmacodynamic effect of apraglutide. Citrulline was detected in all baseline and post-dose samples. Three baseline citrulline samples were obtained during two baseline visits between screening and the first dosing day and before dosing on the first dosing day. […] At baseline, the mean citrulline range was 5.3825-5.6207 μg/mL for placebo, 5.3900-6.2028 μg/mL for 1 mg apraglutide, 4.8983-5.3023 μg/mL for 5 mg apraglutide and 5.0730-5.4690 μg/mL for 10 mg apraglutide. In the placebo group, the mean citrulline concentration remained relatively stable over the trial, ranging from 4.9735 to 5.8253 μg/mL.
In short, the first contrast tested compared the mean Rpre-dose at the first time point (week 1) to the pooled mean Rpre-dose over all remaining time points (week 2 to 6). The second contrast compared the mean at week 2 to the pooled mean over week 3 to 6, etc. Testing continued until the contrast was not statistically significant. The mean Rpre-dose at week 6 for 10 mg against mean Rpre-dose over week 5 (0.8720, 95% CI: 0.1590; 1.5850 and p=0.0172) was statistically significant.
Besides citrulline, the Bristol stool scale and body weight were assessed as pharmacodynamic endpoints. In contrast to citrulline and weight, the Bristol stool scale is a discrete variable. Subjects assessed their stool in the past 24 hours using the Bristol stool scale ranging from constipation (type 1) to diarrhea (type 7). No stool in the past 24 hours was recorded as zero. As two subjects (assigned to either 1 or 5 mg) reported no stool preceding the first dose, the screening Bristol stool scale score was also taken into account when determining the baseline Bristol stool scale score.
Citrulline, BSS and weight data are analyzed with a mixed model analysis of variance with fixed factors treatment, time and treatment by time, random factor subject, and the average prevalue as covariate. The average pre-value was calculated from all pre-values after screening and before dosing, except for BSS, where the screening value was also used to calculate the average baseline.
For all pharmacodynamic endpoints (citrulline, Bristol stool scale and weight), the pre-value has been used as covariate. The average pre-value was calculated from all pre-values after screening and before dosing, except for the Bristol stool scale, where the screening value was also used to calculate the average baseline. The average pre-value of citrulline was also used as covariate in the MCP-MOD, except in the Sigmoid Emax model. This was addressed by subtracting the pre-value times the slope of the linear model of the MCP part from the values of week 6.

[1] = 1 mg, over the whole trial period
[2] = 5 mg, over the whole trial period
[3] = 10 mg, over the whole trial period (N = 5)

CCCC[C@H](NC(=O)[C@H](CCC(=O)O)NC(=O)[C@H](CC(=O)O)NC(=O)[C@H](CO)NC(=O)[C@H](Cc1ccccc1)NC(=O)[C@H](CO)NC(=O)CNC(=O)[C@H](CC(=O)O)NC(=O)CNC(=O)[C@@H](N)Cc1c[nH]cn1)C(=O)N[C@H](Cc1ccccc1)C(=O)N[C@H](C(=O)N[C@H](C(=O)N[C@@H](CC(C)C)C(=O)N[C@@H](CC(=O)O)C(=O)N[C@@H](CC(C)C)C(=O)N[C@@H](CC(C)C)C(=O)N[C@@H](C)C(=O)N[C@@H](C)C(=O)N[C@@H](CCCNC(=N)N)C(=O)N[C@@H](CC(=O)O)C(=O)N[C@@H](Cc1ccccc1)C(=O)N[C@H](C(=O)N[C@@H](CC(N)=O)C(=O)N[C@@H](Cc1c[nH]c2ccccc12)C(=O)N[C@@H](CC(C)C)C(=O)N[C@H](C(=O)N[C@@H](CCC(N)=O)C(=O)N[C@H](C(=O)N[C@@H](CCCCN)C(=O)N[C@H](C(=O)N[C@H](C(=O)N[C@@H](CC(=O)O)C(N)=O)C(C)O)C(C)CC)C(C)O)C(C)CC)C(C)CC)C(C)CC)C(C)O (stereo partly drawn) [apraglutide, L-histidyl-glycyl-L-aspartyl-glycyl-L-seryl-L-phenylalanyl-L-seryl-L-aspartyl-L-glutamyl-L-norleucyl-D-phenylalanyl-L-threonyl-Lisoleucyl-L-leucyl-L-aspartyl-L-leucyl-L-leucyl-L-alanyl-L-alanyl-L-arginyl-L-aspartyl-L-phenylalanyl-L-isoleucyl-L-asparaginyl-Ltryptophanyl-L-leucyl-L-isoleucyl-L-glutaminyl-L-threonyl-L-lysyl-L-isoleucyl-L-threonyl-Laspartic acid amide] (H-HGDGSFSDE[Nle][dF][Thr(3ξ)][Ile(3ξ)]LDLLAARDF[Ile(3ξ)]NWL[Ile(3ξ)]Q[Thr(3ξ)]K[Ile(3ξ)][Thr(3ξ)]D-NH2)
Difference between mean Rmax over the whole trial and Rmax after last dose (1 mg): 0.1016 µg/mL
Bristol stool scale with zeroes set to missing, estimate of the difference (1 mg - 5 mg): 0.2
Bristol stool scale, estimate of the difference (1 mg - 5 mg): −0.1
Citrulline, estimate of the difference (1 mg - 5 mg): 0.9429 µg/mL
Weight, estimate of the difference (1 mg - 5 mg): -0.115 kg
Bristol stool scale with zeroes set to missing, estimate of the difference (1 mg - 10 mg): 0.1
Bristol stool scale, estimate of the difference (1 mg - 10 mg): 0.3
Citrulline, estimate of the difference (1 mg - 10 mg): 1.3198 µg/mL
Weight, estimate of the difference (1 mg - 10 mg): 0.419 kg
No stool in the past 24 hours, number of reports (1 mg group (2 subjects)): 6 times
Highest mean citrulline value following the first weekly SC dose (1 mg, after four days): 6.3920 µg/mL
Citrulline Rtmax, median (1 mg, after last dose 6): 2.0 days
Citrulline Rpre-dose, arithmetic mean ± SD (1 mg, last dose 1): 5.8075 ± 1.3328 µg/mL
Citrulline Rpre-dose, geometric mean (1 mg, last dose 1): 5.6723 µg/mL
Citrulline Rpre-dose, arithmetic mean ± SD (1 mg, last dose 2): 6.2605 ± 1.2331 µg/mL
Citrulline Rpre-dose, geometric mean (1 mg, last dose 2): 6.1526 µg/mL
Citrulline Rpre-dose, arithmetic mean ± SD (1 mg, last dose 3): 6.4913 ± 1.8297 µg/mL
Citrulline Rpre-dose, geometric mean (1 mg, last dose 3): 6.2752 µg/mL
Citrulline Rpre-dose, arithmetic mean ± SD (1 mg, last dose 4): 6.0050 ± 1.5790 µg/mL
Citrulline Rpre-dose, geometric mean (1 mg, last dose 4): 5.8213 µg/mL
Citrulline Rpre-dose, arithmetic mean ± SD (1 mg, last dose 5): 6.4128 ± 1.8032 µg/mL
Citrulline Rpre-dose, geometric mean (1 mg, last dose 5): 6.2097 µg/mL
Citrulline Rmax, arithmetic mean ± SD (1 mg, last dose 6): 7.1702 µg/mL
Citrulline Rmax, geometric mean (1 mg, last dose 6): 7.0069 µg/mL
Citrulline Rpre-dose, arithmetic mean ± SD (1 mg, last dose 6): 6.3120 ± 1.6694 µg/mL
Citrulline Rpre-dose, geometric mean (1 mg, last dose 6): 6.1166 µg/mL
Citrulline Rmax, arithmetic mean ± SD (1 mg, last dose 6, listed as Apraglutide): 7.1702 ± 1.6611 µg/mL
Citrulline Rmax, arithmetic mean ± SD [1]: 7.2718 ± 1.6959 µg/mL
Citrulline Rmax, geometric mean [1]: 7.1036 µg/mL
Citrulline Rtmax, median (1 mg, whole trial period, from first dose): 35.9 days
Difference between mean Rmax over the whole trial and Rmax after last dose (5 mg): 0.0973 µg/mL
Bristol stool scale with zeroes set to missing, estimate of the difference (5 mg - 10 mg): −0.0
Bristol stool scale, estimate of the difference (5 mg - 10 mg): 0.5
Citrulline, estimate of the difference (5 mg - 10 mg): 0.3769 µg/mL
Weight, estimate of the difference (5 mg - 10 mg): 0.534 kg
No stool in the past 24 hours, number of reports (5 mg group (4 subjects)): 13 times
Highest mean citrulline value following the first weekly SC dose (5 mg, after four days): 7.1933 µg/mL
Citrulline Rtmax, median (5 mg, after last dose 6): 3.9 days
Citrulline Rpre-dose, arithmetic mean ± SD (5 mg, last dose 1): 6.7695 ± 1.5288 µg/mL
Citrulline Rpre-dose, geometric mean (5 mg, last dose 1): 6.5967 µg/mL
Citrulline Rpre-dose, arithmetic mean ± SD (5 mg, last dose 2): 7.0082 ± 1.1330 µg/mL
Citrulline Rpre-dose, geometric mean (5 mg, last dose 2): 6.9208 µg/mL
Citrulline Rpre-dose, arithmetic mean ± SD (5 mg, last dose 3): 6.6155 ± 1.2790 µg/mL
Citrulline Rpre-dose, geometric mean (5 mg, last dose 3): 6.5109 µg/mL
Citrulline Rpre-dose, arithmetic mean ± SD (5 mg, last dose 4): 6.6227 ± 1.2247 µg/mL
Citrulline Rpre-dose, geometric mean (5 mg, last dose 4): 6.5313 µg/mL
Citrulline Rpre-dose, arithmetic mean ± SD (5 mg, last dose 5): 6.8307 ± 1.2369 µg/mL
Citrulline Rpre-dose, geometric mean (5 mg, last dose 5): 6.7248 µg/mL
Citrulline Rmax, arithmetic mean ± SD (5 mg, last dose 6): 8.1577 µg/mL
Citrulline Rmax, geometric mean (5 mg, last dose 6): 8.0024 µg/mL
Citrulline Rpre-dose, arithmetic mean ± SD (5 mg, last dose 6): 7.2498 ± 1.2461 µg/mL
Citrulline Rpre-dose, geometric mean (5 mg, last dose 6): 7.1475 µg/mL
Citrulline Rmax, arithmetic mean ± SD (5 mg, last dose 6, listed as Apraglutide): 8.1577 ± 1.7108 µg/mL
Citrulline Rmax, arithmetic mean ± SD [2]: 8.2550 ± 1.7807 µg/mL
Citrulline Rmax, geometric mean [2]: 8.0870 µg/mL
Citrulline Rtmax, median (5 mg, whole trial period, from first dose): 38.9 days
Difference between mean Rmax over the whole trial and Rmax after last dose (10 mg): 0.0362 µg/mL
No stool in the past 24 hours, number of reports (10 mg group (1 subject)): 1 time
Steady-state contrast: mean citrulline Rpre-dose at week 6 against week 5 (10 mg, Helmert's approach): 0.8720
Highest mean citrulline value following the first weekly SC dose (10 mg, after 7 days): 7.8487 µg/mL
Citrulline Rtmax, median (10 mg, after last dose 6 (N = 5)): 3.9 days
Citrulline Rpre-dose, arithmetic mean ± SD (10 mg, last dose 1): 7.8487 ± 2.7273 µg/mL
Citrulline Rpre-dose, geometric mean (10 mg, last dose 1): 7.4048 µg/mL
Citrulline Rpre-dose, arithmetic mean ± SD (10 mg, last dose 2): 7.6058 ± 2.3210 µg/mL
Citrulline Rpre-dose, geometric mean (10 mg, last dose 2): 7.2438 µg/mL
Citrulline Rpre-dose, arithmetic mean ± SD (10 mg, last dose 3): 7.5180 ± 2.1369 µg/mL
Citrulline Rpre-dose, geometric mean (10 mg, last dose 3): 7.2331 µg/mL
Citrulline Rpre-dose, arithmetic mean ± SD (10 mg, last dose 4 (N = 5)): 7.2060 ± 2.5488 µg/mL
Citrulline Rpre-dose, geometric mean (10 mg, last dose 4 (N = 5)): 6.8103 µg/mL
Citrulline Rpre-dose, arithmetic mean ± SD (10 mg, last dose 5 (N = 5)): 7.1994 ± 2.5111 µg/mL
Citrulline Rpre-dose, geometric mean (10 mg, last dose 5 (N = 5)): 6.7908 µg/mL
Citrulline Rmax, arithmetic mean ± SD (10 mg, last dose 6 (N = 5)): 8.7254 µg/mL
Citrulline Rmax, geometric mean (10 mg, last dose 6 (N = 5)): 8.2533 µg/mL
Citrulline Rpre-dose, arithmetic mean ± SD (10 mg, last dose 6 (N = 5)): 8.0714 ± 3.0514 µg/mL
Citrulline Rpre-dose, geometric mean (10 mg, last dose 6 (N = 5)): 7.5618 µg/mL
Citrulline Rmax, arithmetic mean ± SD (10 mg, last dose 6 (N = 5), listed as Apraglutide): 8.7254 ± 3.0145 µg/mL
Citrulline Rmax, arithmetic mean ± SD [3]: 8.7616 ± 2.9900 µg/mL
Citrulline Rmax, geometric mean [3]: 8.2953 µg/mL
Citrulline Rt1/2, individual subjects (10 mg, two subjects): 6.5 days and 11.0 days
Citrulline Rtmax, median (10 mg, whole trial period, from first dose (N = 5)): 36.9 days
Time after first dose at which increases in citrulline were observed (1, 5 or 10 mg): 2 days
Bristol stool scale with zeroes set to missing, estimate of the difference (Placebo - 1 mg): −0.6
Bristol stool scale, estimate of the difference (Placebo - 1 mg): −0.9
Weight, estimate of the difference (Placebo - 1 mg): -0.750 kg
Citrulline, estimate of the difference (Placebo - 1 mg, 6 weekly SC doses): 0.3146 µg/mL
Citrulline, estimate of the difference (Placebo - 1 mg, 6 weekly SC doses, listed as Apraglutide): 0.31 [95% CI: −0.4371; μg/mL
Bristol stool scale with zeroes set to missing, estimate of the difference (Placebo - 5 mg): −0.4
Bristol stool scale, estimate of the difference (Placebo - 5 mg): −1.0
Weight, estimate of the difference (Placebo - 5 mg): -0.865 kg
Citrulline, estimate of the difference (Placebo - 5 mg, 6 weekly SC doses): 1.2574 µg/mL
Citrulline, estimate of the difference (Placebo - 5 mg, 6 weekly SC doses, listed as Apraglutide): 1.26 [95% CI: 0.5037; μg/mL
Bristol stool scale with zeroes set to missing, estimate of the difference (Placebo - 10 mg): −0.5
Bristol stool scale, estimate of the difference (Placebo - 10 mg): −0.6
Weight, estimate of the difference (Placebo - 10 mg): -0.331 kg
Citrulline, estimate of the difference (Placebo - 10 mg, 6 weekly SC doses): 1.6343 µg/mL
Citrulline, estimate of the difference (Placebo - 10 mg, 6 weekly SC doses, listed as Apraglutide): 1.63 [95% CI: 0.8809; μg/mL
Variability in citrulline Rmax explained by AUCtau (R squared) (week 6): 26%
Increase of maximum citrulline response per 100 d*ng/mL increase in AUCtau (week 6, regression line): 390 ng/mL
